Consider 17 compounds from patent EP3010915B1 (priority 2013, dated 2014).

In one assay the target is T1, LSD1 (Homo sapiens, UniProt O60341).
T1 construct: purchased Cayman Chemical Company 700120
Type of assay: biochemical.

Another assay has as its system heme oxygenase 1 (HMOX1). In words: Expression array experiments. Format: cell-based. Conditions: multiple cell lines; data not shown. As to the method: As HMOX1 is known to be regulated by H3 methylation in the promoter (Krieg, A. J., et al. Mol Cell Biol 2010, 30 (1), 344-53), the effect of the test compounds on HMOX1 expression in T-47D cells was determined (see Tables 6 and 7).

The structures appear in SMILES notation. pIC50: −log10 of the molar value. A value given as a limit tells only on which side of the number the result lay.

The term pIC50 denotes the IC50 on a negative log10 scale, so that one unit is a factor of ten. A lower pIC50 goes with a large IC50. With `C/C(=N\NC(=O)c1cncc(Cl)c1)c1cc(Cl)ccc1O` [Compound 20], the pIC50 against LSD1 is < 5.52.

With `COc1ccc(Cl)cc1C(=O)NNC(=O)c1cc(S(=O)(=O)N2CCOCC2)ccc1F` [Compound 6], on LSD1, the pIC50 is < 5.52.

As for `C/C(=N\NC(=O)c1cnc(Cl)c(Br)c1)c1cc(Cl)ccc1O` [Compound 19], the pIC50 at LSD1 is < 5.52.

As for `CC/C(=N\NC(=O)c1cccc(S(=O)(=O)N2CCOCC2)c1)c1cc(Cl)ccc1O` [Compound 21, (E)-N'-(1-(5-CHLORO-2-HYDROXYPHENYL)PROPYLIDENE)-3-(MORPHOLINOSULFONYL)BENZOHYDRAZIDE], the pIC50 against LSD1 was < 5.52.

On to `C/C(=N\NC(=O)c1ccccc1)c1c(O)cccc1O` [Compound 14], for which the pIC50 against LSD1 was < 5.52.

As for `Cc1cn(C(=O)c2cccc(S(=O)(=O)N3CCOCC3)c2)nc1-c1cc(Cl)ccc1O` [Compound 37, (3-(5-chloro-2-hydroxyphenyl)-4-methyl-1H-pyrazol-1-yl)(3-(morpholinosulfonyl)phenyl)methanone], at LSD1, the pIC50 is < 5.52.

Consider `C/C(=N\NC(=O)c1ccc(Cl)c(Br)c1)c1cc(Cl)ccc1O` [Compound 17], for which the pIC50 against LSD1 was < 5.52.

`C/C(=N\NC(=O)c1ccccc1S(=O)(=O)N1CCOCC1)c1cc(Cl)ccc1O` [Compound 28, (E)-N'-(1-(5-chloro-2-hydroxyphenyl)ethylidene)-2-(morpholinosulfonyl)benzohydrazide]: the pIC50 against LSD1 is < 5.52.

As to `C/C(=N\NC(=O)c1cccc(S(=O)(=O)N2CCOCC2)c1)c1ccnc(Cl)c1` [Compound 15], the pIC50 at LSD1 is < 5.52.

Consider `C/C(=N\NC(=O)c1cccc(S(=O)(=O)N2CCOCC2)c1)c1cccc(Cl)c1F` [Compound 13], for which the pIC50 at LSD1 was < 5.52.

As for `C/C(=N\NC(=O)c1cccc(S(=O)(=O)N2CCOCC2)c1)c1cccnc1` [Compound 22], the pIC50 against LSD1 is < 5.52.

Take `C/C(=N\NC(=O)c1cccc(S(=O)(=O)N2CCOCC2)c1)c1cc(Cl)ccc1Cl` [Compound 16]: the pIC50 on LSD1 is < 5.52.

As for `C/C(=N\NC(=O)c1cccc(S(=O)(=O)N2CCOCC2)c1)c1cc(Cl)ccc1[N+](=O)[O-]` [Compound 32, (E)-N'-(1-(5-chloro-2-nitrophenyl)ethylidene)-3-(morpholinosulfonyl)benzohydrazide], the pIC50 at LSD1 was < 5.52.

`C/C(=N\NC(=O)c1cccc(S(=O)(=O)N2CCOCC2)c1)c1cc(Cl)ccc1O` [Compound 12, (E)-N'-(1-(5-chloro-2-hydroxyphenyl)ethylidene)-3-(morpholinosulfonyl)benzohydrazide]: the “transcriptional changes, HMOX1” value in the assay on heme oxygenase 1 (HMOX1) is on record as “one of the most consistently up-regulated genes”. The pIC50 against LSD1 was 7.89.

`C/C(=N\NC(=O)c1cccc(S(=O)(=O)N2CCOCC2)c1)c1cc(Cl)ccc1F` [Compound 27, (E)-N'-(1-(5-chloro-2-fluorophenyl)ethylidene)-3-(morpholinosulfonyl)benzohydrazide]: the pIC50 against LSD1 was < 5.52.

As for `CCN(CC)S(=O)(=O)c1ccc(F)c(C(=O)NNC(=O)c2ccc(C)cc2)c1` [Compound 8], on LSD1, the negative-log IC50 (pIC50) was < 5.52.

Regarding `O=C(NNC(=O)c1cc(S(=O)(=O)N2CCOCC2)ccc1F)c1cccc(Cl)c1` [Compound 7], at LSD1, the pIC50 was < 5.52.
